# Results from patent publication US12054744B2, “NK cells exhibiting an adaptive phenotype and methods for preparing and for using” (Regents of the University of Minnesota, priority 2015, dated 2024).
# How the values were obtained:
# Format in all cases: cell-based, human
# [1] = test system: PLZF expression in cord blood-derived CD56^dim NK cells; assay: Intracellular PLZF staining of cord blood-derived CD56^dim NK cells after 14 days in culture; settings: high-dose IL-15, IL-21 where added
# Procedure: FIG. 6A. FACS plots of intracellular PLZF expression in cord blood-derived CD56^dim NK cells from a representative donor after 14 days in the indicated culture conditions. FIG. 6B. Cumulative data showing the percentage of PLZF″ NK cells after 14 days in each culture condition from 6 donors. Two independent experiments were performed. Error bars represent SEM.
# Mononuclear cells were isolated from whole cord blood by density gradient centrifugation. T cells and B cells were depleted by positive magnetic selection using anti-CD3 and anti-CD19 microbeads, respectively. CD3/CD19-depleted cells were then added to irradiated OP9 cells at a concentration of 5×10^5 cells/well and cultured for 14 days in RPMI media+10% FBS supplemented with either 1 ng/mL IL-15 or 10 ng/mL IL-15 with or without 50 ng/mL IL-21.
# Cord blood-derived NK cells were analyzed before culture and after 7 and 14 days of culture by fluorescence activated cell sorting (FACS) using the following extracellular and intracellular antibodies: BV785-conjugated anti-CD3 (BioLegend, San Diego, CA), PE-Cy7-conjugated anti-CD56 (BioLegend, San Diego, CA), BV605-conjugated anti-CD57 (BioLegend, San Diego, CA), APC-conjugated SYK (eBioscience, San Diego, CA), and PE-conjugated anti-PLZF (BD Biosciences, San Jose, CA).
# Transcriptional silencing of the transcription factor promyelocytic leukemia zinc finger (PLZF) is a hallmark of adaptive NK cells that expand in response to CMV infection (Schlums et al. Immunity. 2015; 42(3):443-456). Intracellular staining for PLZF was performed in NK cells from freshly isolated mononuclear cells and from cells that were cultured for 14 days in vitro. Freshly isolated CD56^dimSYK^− NK cells from cord blood were predominantly PLZF-positive (99.3%±0.10). […] Therefore, IL-21 drives down PLZF expression in CD56^dimSYK^− NK cells, causing these cells to acquire adaptive characteristics (FIG. 6).
# [2] = test system: TIGIT; assay: Flow cytometry of TIGIT and other receptors on NK cells; settings: cultured overnight; IL-15 10 ng/mL alone, or additional anti-CD16 1 μg/mL
# Procedure: FIG. 11A. Purified NK cells from healthy blood donors were cultured before staining in the absence or presence of IL-15 (10 ng/mL) alone or with the additional stimulation of IL-12 (10 ng/mL) and IL-18 (100 ng/mL) for 18 hours or with stimulation with anti-CD16 (1 μg/mL) for 6 hours. One of four independent experiments is shown. NK cells were cultured with autologous MDSCs or freshly isolated monocytes at a 2:1 ratio in presence of IL-15 (10 ng/mL) for 5 days. Cells were stimulated with anti-CD16 six hours prior to analysis. Representative histograms for DNAM-1 (FIG. 11B) and TIGIT expression (FIG. 11C) and aggregate data for TIGIT expression (n=8) are shown as mean fluorescence intensity (MFI)±SEM. Two-Way ANOVA was used for statistical analysis. FIG. 11D. NK cells before and after co-culture with monocytes or MDSC were analyzed for co-expression of DNAM-1 and TIGIT. Representative data is shown of 3 independent experiments and 7 replicates. […]
# Purified NK cells or MDS PBMC (FIG. 17) cultured with monocytes or MDSCs for different time points and with different stimuli were resuspended in staining buffer (PBS containing 0.5% human AB serum) and stained with fluorochrome-conjugated antibodies (Table IV). […] All cells were acquired by LSRII and analyzed by FlowJo. […]
# [3] = test system: NK cells from CMV seropositive donors; assay: Culture of CD3/CD19-depleted PBMCs with IL-15; FACS for CD45RA/CD45RO; settings: autologous monocytes, 10 ng/mL IL-15, 7 days
# Procedure: CD3/CD19-depleted peripheral blood mononuclear cells from typed healthy CMV seronegative and seropositive donors were cultured with 10 ng/mL IL-15. After 7 days, cells were harvested and analyzed by FACS. Shown are representative phenotypes from one CMV seropositive and one CMV seronegative donor both before and after culture (top). Cumulative data showing the percentages of CD3^−CD56^+CD45RA^−CD45RO^+ NK cells from five CMV seronegative and eight CMV seropositive donors pre- and post-culture are shown (bottom). Data are representative of two independent experiments. Paired student's t-tests were used to determine statistical significance within groups, and unpaired student's t-tests were used to determine statistical significance between groups (CMV seropositive and CMV seronegative). *p≤0.05, **p≤0.01, ***p≤0.001.
# CD3/CD19-depleted peripheral blood mononuclear cells from typed healthy CMV seronegative and seropositive donors were cultured with 10 ng/mL IL-15. Percentages of CD3^−CD56^+CD45RA^−CD45RO^+ NK cells from CMV seronegative and CMV seropositive donors pre- and post-culture were measured using FACS.
substance,measurement,setting,value
"IL-15: cytokine in culture medium, low-dose 1 ng/mL or high-dose 10 ng/mL",decrease in PLZF expression (percentage of PLZF-negative NK cells),[1]; CD56^dimCD57^−SYK^+ NK cells,9.93%±0.75
same,decrease in PLZF expression (percentage of PLZF-negative NK cells),[1]; CD56^dimCD57^−SYK^− NK cells,7.05%±1.31
same,TIGIT expression on purified NK cells,[2],slighted upregulated
same,CD45RA/CD45RO phenotype of NK cells,[3],skew towards a CD45RA^−CD45RO^+ phenotype
